Values of other authors as cited in patent publication US9730930B2, “Treatment for vitiligo” (Rigel Pharmaceuticals, Inc., priority 2012, dated 2017).

Test system: other cytokine (IL-1β and TNFα) signaling

C#CCOc1ccc(Nc2nc(Nc3ccc(C)c(S(N)(=O)=O)c3)ncc2F)cc1 [Compound I, N2-(3-aminosulfonyl-4-methylphenyl)-5-fluoro-N4-[4-(prop-2-ynyloxy)phenyl]-2,4-pyrimidinediamine]
activity on other cytokine (IL-1β and TNFα) signaling: little or no activity
